Laboratory results: PubChem BioAssay AID687005 (Broad Institute, 2013)
Results filed as inconclusive are left out. Activity calls are given as the source filed them.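 How the source made its calls: active means Compounds that reduce signal, with fitted half-maximal dose at or under twice the top valid tested dose; inconclusive means Poor fit, or flat curve losing 30 to 70% of signal; inactive means Potency past limit, flat within 30%, or opposite direction.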

Experiment: viability loss in HEK293T cells – cell-based, ATP luminescence, cherry-pick samples, cytotoxicity control, dose response (AID 687005)
Settings: HEK293T viability, ATP luminescence (CellTiter-Glo), 48 h

## CO[C@@H]1CN(C)C(=O)c2ccc(NS(=O)(=O)c3ccc(Oc4ccccc4)cc3)cc2OC[C@H](C)NC[C@H]1C
At 26 µM (top of the series)
  activity change, negative = cytotoxicity: -26.5% (inactive)

## CCC(C)(C(=O)Nc1ccccc1C)N(C(=O)CNC(C)=O)c1ccc(C)cc1 (centres undefined)
At 26 µM (top of the series)
  activity change, negative = cytotoxicity: -11.7% (inactive)

## Cc1ccc(OCC(=O)NCc2ccccc2)cc1
At 50 µM (top of the series)
  activity change, negative = cytotoxicity: 29% (inactive)

## O=C(COc1ccc2c(c1)CCC2)NCc1ccccc1
At 26 µM (top of the series)
  activity change, negative = cytotoxicity: 1.59% (inactive)

## CCC(=O)N1[C@@H]2Cn3c(ccc(C4=CCCCC4)c3=O)[C@H]1[C@@H](C(=O)N[C@H](C)c1ccccc1)[C@@H]2CO
At 26 µM (top of the series)
  activity change, negative = cytotoxicity: -16.5% (inactive)

## CC(C)COc1ccc(CNC(=S)NCc2ccccc2)cc1
At 26 µM (top of the series)
  activity change, negative = cytotoxicity: -1.46% (inactive)

## CCC(=O)Nc1ccc2c(c1)C(=O)N(C)C[C@@H](OC)[C@H](C)CN[C@@H](C)CO2
At 26 µM (top of the series)
  activity change, negative = cytotoxicity: 4.18% (inactive)

## C[C@@H]1CN([C@@H](C)CO)C(=O)c2cc(C3=CCCCC3)cnc2O[C@H]1CN(C)C(=O)Cc1cccnc1
At 26 µM (top of the series)
  activity change, negative = cytotoxicity: -18.3% (inactive)

## COc1ccccc1NC(=O)N[C@H]1CC[C@@H](CCn2cc(-c3ccccc3OC)nn2)O[C@@H]1CO
At 26 µM (top of the series)
  activity change, negative = cytotoxicity: -9.57% (inactive)

## C[C@@H]1CN([C@@H](C)CO)C(=O)c2cc(NC(=O)C3CCCCC3)ccc2O[C@@H](C)CCCCO[C@@H]1CN(C)C(=O)NC1CCCCC1
At 26 µM (top of the series)
  activity change, negative = cytotoxicity: 8.91% (inactive)

## CN1CCN(C(=O)CN(c2ccc(I)cc2)S(=O)(=O)c2ccccc2)CC1
At 18 µM (top of the series)
  activity change, negative = cytotoxicity: 45.2% (inactive)

## C[C@@H]1CCCCO[C@H](CN(C)C(=O)c2ccccc2)[C@@H](C)CN([C@@H](C)CO)C(=O)c2cc(NC(=O)c3ccccc3)ccc2O1
At 26 µM (top of the series)
  activity change, negative = cytotoxicity: 5.72% (inactive)

## CCNC(=O)Nc1ccc2c(c1)C(=O)N(C)[C@@H]1CC[C@H](CC(=O)N[C@@H](C)c3ccccc3)O[C@@H]1CO2
At 26 µM (top of the series)
  activity change, negative = cytotoxicity: 66.2% (inactive)

## CC(C)NC(=O)Nc1ccc2c(c1)C(=O)N([C@H](C)CO)C[C@H](C)[C@H](CN(C)Cc1ccncc1)OCCCC[C@H](C)O2
At 26 µM (top of the series)
  activity change, negative = cytotoxicity: -57.3% (inactive)

## CC(=O)N[C@H]1CC[C@@H](CCNC(=O)C2CCC2)O[C@H]1CO
At 26 µM (top of the series)
  activity change, negative = cytotoxicity: 1.44% (inactive)

## CCCNC(=O)C[C@@H]1CC[C@@H]2[C@@H](COc3ccc(NC(=O)CCC)cc3C(=O)N2C)O1
At 23.5 µM (top of the series)
  activity change, negative = cytotoxicity: 9.04% (inactive)

## COc1ccc(N(CC(=O)NCCSCc2ccc(C)cc2)S(=O)(=O)c2ccccc2)cc1
At 26 µM (top of the series)
  activity change, negative = cytotoxicity: -65.3% (inactive)

## O=C(C[C@@H]1CC[C@H]2[C@@H](COC[C@H](O)CN2Cc2cccc(C(F)(F)F)c2)O1)NCc1ccccc1
At 26 µM (top of the series)
  activity change, negative = cytotoxicity: -14.1% (inactive)

## CC(C)CC#Cc1cnc2c(c1)C(=O)N([C@@H](C)CO)C[C@H](C)[C@H](CN(C)C(=O)c1ccc3c(c1)OCO3)O2
At 26 µM (top of the series)
  activity change, negative = cytotoxicity: 16.5% (inactive)

## O=C(C[C@@H]1CC[C@H]2[C@@H](COC[C@H](O)CN2Cc2ccccc2F)O1)NC1CCC1
At 26 µM (top of the series)
  activity change, negative = cytotoxicity: -8.5% (inactive)

## C[C@H]1CN([C@@H](C)CO)C(=O)c2cc(C#Cc3ccccn3)cnc2O[C@H]1CN(C)Cc1ccncc1
At 26 µM (top of the series)
  activity change, negative = cytotoxicity: 38.4% (inactive)

## CC=Cc1ccc2n(c1=O)C[C@H]1[C@H](CO)[C@@H](C(=O)NCc3ccc4c(c3)OCO4)[C@@H]2N1C(=O)C1CC1 (mixture of isomers)
At 26 µM (top of the series)
  activity change, negative = cytotoxicity: -15.5% (inactive)

## C[C@@H]1CN([C@@H](C)CO)C(=O)CCCn2cc(nn2)CO[C@@H]1CN(C)C(=O)NC1CCCC1
At 26 µM (top of the series)
  activity change, negative = cytotoxicity: 5.64% (inactive)

## Cc1noc(C)c1S(=O)(=O)N(C)C[C@@H]1OCCCC[C@@H](C)Oc2ccc(NC(=O)CCCCCC(=O)Nc3ccccc3N)cc2C(=O)N([C@H](C)CO)C[C@@H]1C
At 26 µM (top of the series)
  activity change, negative = cytotoxicity: 1.87% (inactive)

## CCC(=O)N[C@H]1C=C[C@@H](CC(=O)OC)O[C@@H]1CO
At 26 µM (top of the series)
  activity change, negative = cytotoxicity: -29.7% (inactive)

## CC(C)NC(=O)Nc1cccc2c1O[C@H](CN(C)C)[C@H](C)CN([C@H](C)CO)C2=O
At 23.5 µM (top of the series)
  activity change, negative = cytotoxicity: 7.48% (inactive)

## CC(C)NC(=O)N(C)C[C@H]1Oc2c(NS(=O)(=O)c3ccc(Cl)cc3)cccc2C(=O)N([C@@H](C)CO)C[C@@H]1C
At 26 µM (top of the series)
  activity change, negative = cytotoxicity: -20.3% (inactive)

## Cc1noc(C)c1S(=O)(=O)Nc1ccc2c(c1)C(=O)N([C@@H](C)CO)C[C@@H](C)[C@@H](CN(C)Cc1ccccc1)OCCCC[C@H](C)O2
At 26 µM (top of the series)
  activity change, negative = cytotoxicity: -12.2% (inactive)

## Cc1cc(C)c2nc(N3CCN(C(=O)c4cccs4)CC3)sc2c1
At 26 µM (top of the series)
  activity change, negative = cytotoxicity: -19.8% (inactive)

## Cc1cc(C)c(N2CCCC2C(=O)Nc2cccc(C(F)(F)F)c2)c(C)c1 (centres undefined)
At 35 µM (top of the series)
  activity change, negative = cytotoxicity: -7.11% (inactive)

## COc1ccc(C#Cc2cnc3c(c2)C(=O)N([C@@H](C)CO)C[C@H](C)[C@@H](CN(C)C(=O)CC2CC2)O3)cc1
At 26 µM (top of the series)
  activity change, negative = cytotoxicity: -34.7% (inactive)

## C[C@@H]1CN([C@H](C)CO)C(=O)c2cc(NC(=O)Nc3cccc4ccccc34)ccc2O[C@H]1CN(C)C(=O)Nc1ccc(C(F)(F)F)cc1
At 23.5 µM (top of the series)
  activity change, negative = cytotoxicity: -31% (inactive)

## C[C@H]1CN([C@@H](C)CO)C(=O)c2cc(Br)cnc2O[C@@H]1CN(C)Cc1ccccn1
At 26 µM (top of the series)
  activity change, negative = cytotoxicity: 22.1% (inactive)

## C[C@@H]1CN([C@@H](C)CO)C(=O)c2cccc(NC(=O)Nc3ccccc3)c2O[C@H]1CN(C)S(=O)(=O)c1cn(C)cn1
At 26 µM (top of the series)
  activity change, negative = cytotoxicity: 55.5% (inactive)

## CCCC#Cc1ccc2c(c1)O[C@@H](CN(C)C)[C@@H](C)CN([C@@H](C)CO)S2(=O)=O
At 26 µM (top of the series)
  activity change, negative = cytotoxicity: 13.6% (inactive)

## C[C@@H]1CN([C@H](C)CO)C(=O)Cc2cc(NC(=O)CCCCCC(=O)Nc3ccccc3N)ccc2O[C@H]1CN(C)C(=O)Nc1ccccc1
At 26 µM (top of the series)
  activity change, negative = cytotoxicity: 0.594% (inactive)

## CO[C@H]1CN(C)C(=O)c2cc(NS(=O)(=O)c3ccc(C)cc3)ccc2OC[C@@H](C)N(C(=O)NC(C)C)C[C@@H]1C
At 26 µM (top of the series)
  activity change, negative = cytotoxicity: 26.2% (inactive)

## N#Cc1ccc(C23CC4(C2)[C@H](CN(Cc2ccc(C(F)(F)F)cc2)[C@@H]4c2ccccc2)C3c2ccc(C(F)(F)F)cc2)cc1 (some centres undefined)
At 26 µM (top of the series)
  activity change, negative = cytotoxicity: 10.4% (inactive)

## CCC(=O)N1CCCC1(C)C(=O)Nc1ccc(C)c(C)c1 (centres undefined)
At 42 µM (top of the series)
  activity change, negative = cytotoxicity: -1.9% (inactive)

## C[C@H](O)C#Cc1ccc2c(c1)O[C@H](CN(C)C(=O)C1CCCCC1)[C@H](C)CN([C@@H](C)CO)S2(=O)=O
At 26 µM (top of the series)
  activity change, negative = cytotoxicity: 34.3% (inactive)

## Cc1ccccc1-n1ncc2c(SCC(=O)NCc3cccs3)ncnc21
At 26 µM (top of the series)
  activity change, negative = cytotoxicity: -48.1% (inactive)

## COC(=O)C1=C(C)N(Cc2ccccc2)C(=S)NC1c1ccc(Cl)cc1 (centres undefined)
At 26 µM (top of the series)
  activity change, negative = cytotoxicity: -9.7% (inactive)

## O=C(C1CCOCC1)N1C[C@H]2[C@@H](c3ccccc31)[C@@H](CO)N2Cc1ccccc1Cl
At 26 µM (top of the series)
  activity change, negative = cytotoxicity: 3.34% (inactive)

## Cc1cccc(-c2ccc([C@H]3[C@H](CO)N4CCCCN(C(=O)c5ccc6c(c5)OCO6)C[C@@H]34)cc2)c1
At 26 µM (top of the series)
  activity change, negative = cytotoxicity: 70.3% (inactive)

## CO[C@@H]1CN(C)C(=O)c2ccc(NC(=O)Nc3ccccc3)cc2OC[C@H](C)N(C(C)=O)C[C@H]1C
At 26 µM (top of the series)
  activity change, negative = cytotoxicity: -7.15% (inactive)

## Cc1ccc(S(=O)(=O)N2C[C@@H](O)COC[C@H]3O[C@H](CC(=O)NCc4ccc5c(c4)OCO5)CC[C@@H]32)cc1
At 23.5 µM (top of the series)
  activity change, negative = cytotoxicity: -12.4% (inactive)

## CC(=O)c1cccc(NC(=S)NC2CCCCCCC2)c1
At 26 µM (top of the series)
  activity change, negative = cytotoxicity: -21.5% (inactive)

## O=C1CCC(C(=O)Nc2ccc(Cl)cc2)N1 (centres undefined)
At 26 µM (top of the series)
  activity change, negative = cytotoxicity: 11% (inactive)

## O=C(COc1ccc2c(c1)CCC2)NCc1ccc(Cl)cc1
At 26 µM (top of the series)
  activity change, negative = cytotoxicity: 18.5% (inactive)

## CO[C@H]1CN(C)C(=O)c2ccc(NC(=O)NC(C)C)cc2OC[C@@H](C)NC[C@H]1C
At 26 µM (top of the series)
  activity change, negative = cytotoxicity: -16.2% (inactive)

## CNC[C@H]1Oc2cc(Br)ccc2S(=O)(=O)N([C@H](C)CO)C[C@H]1C
At 26 µM (top of the series)
  activity change, negative = cytotoxicity: 37.7% (inactive)

## C[C@@H]1CN([C@@H](C)CO)S(=O)(=O)c2ccc(C#Cc3ccc(F)cc3)cc2O[C@H]1CN(C)C(=O)NC1CCCC1
At 26 µM (top of the series)
  activity change, negative = cytotoxicity: 39.2% (inactive)

## O=C(C[C@@H]1C=C[C@@H](NC(=O)c2cccc(F)c2)[C@H](CO)O1)NCCN1CCCC1
At 26 µM (top of the series)
  activity change, negative = cytotoxicity: 20.8% (inactive)

## CCC(=O)N(C)C[C@@H]1Oc2cc(C#CC(C)(C)O)ccc2S(=O)(=O)N([C@H](C)CO)C[C@H]1C
At 26 µM (top of the series)
  activity change, negative = cytotoxicity: -15.7% (inactive)

## O=C(C[C@H]1CC[C@@H]2[C@H](COC[C@H](O)CN2CC2CCOCC2)O1)NCc1ccc(Cl)cc1
At 26 µM (top of the series)
  activity change, negative = cytotoxicity: 19% (inactive)

## COc1ccc(CN(C)C[C@@H]2Oc3c(NC(=O)Nc4cccc5ccccc45)cccc3C(=O)N([C@@H](C)CO)C[C@@H]2C)cc1
At 26 µM (top of the series)
  activity change, negative = cytotoxicity: -9.75% (inactive)

## C[C@H](CO)N1C[C@H](C)[C@H](CN(C)C(=O)Nc2ccc3c(c2)OCO3)Oc2ncc(-c3ccc(F)cc3)cc2C1=O
At 26 µM (top of the series)
  activity change, negative = cytotoxicity: -18.8% (inactive)

## CCCNC(=O)N1[C@@H](CO)[C@@H](c2ccc(-c3ccccc3)cc2)[C@@H]1CNC(C)=O
At 26 µM (top of the series)
  activity change, negative = cytotoxicity: -1.66% (inactive)

## CO[C@H]1CN(C)C(=O)c2cc(NC(=O)C3CC3)ccc2OC[C@@H](C)N(Cc2cncnc2)C[C@H]1C
At 26 µM (top of the series)
  activity change, negative = cytotoxicity: -23.3% (inactive)

## CC(NC(=O)COc1ccc([N+](=O)[O-])cc1)c1ccccc1 (centres undefined)
At 26 µM (top of the series)
  activity change, negative = cytotoxicity: 18.2% (inactive)

## CC(=O)N1[C@@H](CO)[C@H](c2ccc(-c3ccccc3)cc2)[C@@H]1CNC(=O)C1CC1
At 26 µM (top of the series)
  activity change, negative = cytotoxicity: 13.9% (inactive)

## O=C(NCC[C@H]1CC[C@@H](NS(=O)(=O)c2ccc(F)cc2)[C@H](CO)O1)c1ccc2c(c1)OCO2
At 26 µM (top of the series)
  activity change, negative = cytotoxicity: 1.86% (inactive)

## COc1ccc(N2CCN(C(=O)CSc3ncnc4c3cnn4-c3ccc(OC)cc3)CC2)cc1
At 26 µM (top of the series)
  activity change, negative = cytotoxicity: -4.11% (inactive)

## O=C(Nc1ccc(F)cc1)N1C[C@H]2[C@@H](c3ccccc31)[C@@H](CO)N2Cc1cocn1
At 26 µM (top of the series)
  activity change, negative = cytotoxicity: -16.4% (inactive)
